Earlier results as cited in US20220323356A1, “METAL (HYDR)OXIDE COMPOSITE COMPRISING POORLY SOLUBLE DRUG, METHOD FOR PREPARING SAME, AND PHARMACEUTICAL COMPOSITION COMPRISING SAME” (priority 2020, published 2022).
Structures can show the parent of a compound that is named as a salt. *1 amine or outer side, *2 acyl side, *3 side chain or, on linkers, in order; H or OH if unused. Where a SMILES comes first, the peptide text is derived from it. Bridges are numbered along the chain shown (N, C = ends). [ ]: non-standard residue; d: D form. The star is where a group is joined. pTerphenylCO(4''-OnC5H11) = CCCCCOc1ccc(-c2ccc(-c3ccc(C(=O)*)cc3)cc2)cc1; Orn(4R-OH,5R-OH) = O=C([C@H](C[C@@H](O)[C@@H](O)N[*:3])N[*:1])[*:2]; hTyr(3S-OH,4S-OH) = N[C@H](C(=O)O)[C@H](O)[C@@H](O)c1ccc(O)cc1; Pro(3S-OH,4S-Me) = C[C@H]1CN[C@H](C(=O)O)[C@H]1O; Hyp = O=C(O)[C@@H]1C[C@@H](O)CN1

Conditions: in vivo; cited from earlier work

Row | SMILES | bioavailability (%)
1 | CSc1ccc2c(c1)N(CCC1CCCCN1C)c1ccccc1S2 (stereo not shown) [thioridazine] | 28%
2 | CC[C@@H](C(=O)[C@@H](C)[C@@H](O)[C@H](C)[C@@H]1O[C@@H]([C@@H](CC)C(=O)O)CC[C@@H]1C)[C@H]1O[C@]2(C=C[C@@H](O)[C@]3(CC[C@@](C)([C@H]4CC[C@](O)(CC)[C@H](C)O4)O3)O2)[C@H](C)C[C@@H]1C [salinomycin] | 73%
3 | CC(=O)[C@]1(O)Cc2c(O)c3c(c(O)c2[C@@H](O[C@H]2C[C@H](N)[C@H](O)[C@H](C)O2)C1)C(=O)c1ccccc1C3=O [Idarubicin] | 20-25%
4 | Cc1cc(Nc2ncc(Cl)c(Nc3ccccc3S(=O)(=O)C(C)C)n2)c(OC(C)C)cc1C1CCNCC1 [ceritinib(LDK378), ceritinib] | 50%
5 | CC(=O)O[C@H]1C(=O)[C@@]2(C)[C@H]([C@H](OC(=O)c3ccccc3)[C@]3(O)C[C@H](OC(=O)[C@H](O)[C@@H](NC(=O)c4ccccc4)c4ccccc4)C(C)=C1C3(C)C)[C@]1(OC(C)=O)CO[C@@H]1C[C@@H]2O [Paclitaxel] | 30%
6 | O=C1O[C@H]([C@@H](O)CO)C(O)=C1O [Ascorbic acid] | 69%
7 | CCN(CC)CCCC(C)Nc1ccnc2cc(Cl)ccc12 (stereo not shown) [chloroquine] | 50~100%
8 | CNC(=O)c1ccccc1Sc1ccc2c(/C=C/c3ccccn3)n[nH]c2c1 [Axitinib] | 58%
9 | Cc1cccc(C)c1OCC(=O)N[C@@H](Cc1ccccc1)[C@@H](O)C[C@H](Cc1ccccc1)NC(=O)[C@H](C(C)C)N1CCCNC1=O [lopinavir] | 25%
10 | CC/C(=C(/c1ccc(OCCN(C)C)cc1)c1cccc(O)c1)c1ccccc1 [droloxifene] | 2%
11 | CN(C)C(=O)C(CCN1CCC(O)(c2ccc(Cl)cc2)CC1)(c1ccccc1)c1ccccc1 [loperamide] | 0.3%
12 | C[C@]12CC[C@H](O)CC1=CC[C@@H]1[C@@H]2CC[C@]2(C)C(c3cccnc3)=CC[C@@H]12 [Abiraterone] | <10%
13 | COc1cccc2c1C(=O)c1c(O)c3c(c(O)c1C2=O)C[C@@](O)(C(=O)CO)C[C@@H]3O[C@H]1C[C@H](N)[C@H](O)[C@H](C)O1 [doxorubicin] | 5%
14 | CC(=O)N[C@@H](CS)C(=O)O [acetylcysteine] | 10%
15 | CCCCCOc1ccc(-c2ccc(-c3ccc(C(=O)N[C@H]4C[C@@H](O)[C@@H](O)NC(=O)[C@@H]5[C@@H](O)[C@@H](C)CN5C(=O)[C@H]([C@@H](C)O)NC(=O)[C@H]([C@H](O)[C@@H](O)c5ccc(O)cc5)NC(=O)[C@@H]5C[C@@H](O)CN5C(=O)[C@H]([C@@H](C)O)NC4=O)cc3)cc2)cc1 [anidulafungin(LY303366), anidulafungin] ({pTerphenylCO(4''-OnC5H11)}-[Orn(4R-OH,5R-OH)]T[Hyp][hTyr(3S-OH,4S-OH)]T[Pro(3S-OH,4S-Me)]; lactam 1-C) | 2~7%
16 | O=c1c(O)c(-c2ccc(O)c(O)c2)oc2cc(O)cc(O)c12 [quercetin] | 20%
17 | Cn1nnc2c(C(N)=O)ncn2c1=O [temozolomide] | 100%
18 | OC(c1cc(C(F)(F)F)nc2c(C(F)(F)F)cccc12)C1CCCCN1 (stereo not shown) [mefloquine] | 85%
19 | CC(C)(C)c1cc(C(C)(C)C)c(NC(=O)c2c[nH]c3ccccc3c2=O)cc1O [ivacaftor] | 20~30%
20 | CC(C)(Sc1cc(C(C)(C)C)c(O)c(C(C)(C)C)c1)Sc1cc(C(C)(C)C)c(O)c(C(C)(C)C)c1 [probucol] | 6%

Row | SMILES | bioavailability (%)
21 | Cc1c(-c2ccc(O)cc2)n(Cc2ccc(OCCN3CCCCCC3)cc2)c2ccc(O)cc12 [bazedoxifene] | 6%
22 | C#Cc1cccc(Nc2ncnc3cc(OCCOC)c(OCCOC)cc23)c1 [erlotinib] | 59%
23 | C[C@H]1O[C@@H](O[C@H]2[C@@H](O)C[C@H](O[C@H]3[C@@H](O)C[C@H](O[C@H]4CC[C@@]5(C)[C@H](CC[C@@H]6[C@@H]5C[C@@H](O)[C@]5(C)[C@@H](C7=CC(=O)OC7)CC[C@]65O)C4)O[C@@H]3C)O[C@@H]2C)C[C@H](O)[C@@H]1O [digoxin] | 50~90%
24 | C[C@@H]1O[C@@H](O[C@@H]2C=C3CC[C@@H]4[C@H](CC[C@]5(C)[C@@H](c6ccc(=O)oc6)CC[C@]45O)[C@@]3(C)CC2)[C@H](O)[C@H](O)[C@H]1O [proscillaridin] | 25%
25 | Cc1cn(-c2cc(NC(=O)c3ccc(C)c(Nc4nccc(-c5cccnc5)n4)c3)cc(C(F)(F)F)c2)cn1 [nilotinib] | 30%
26 | CS(=O)(=O)CCNCc1ccc(-c2ccc3ncnc(Nc4ccc(OCc5cccc(F)c5)c(Cl)c4)c3c2)o1 [lapatinib] | 60%
27 | C[C@H]1O[C@@H](O[C@H]2[C@@H](O)C[C@H](O[C@H]3[C@@H](O)C[C@H](O[C@H]4CC[C@@]5(C)[C@H](CC[C@@H]6[C@@H]5CC[C@]5(C)[C@@H](C7=CC(=O)OC7)CC[C@]65O)C4)O[C@@H]3C)O[C@@H]2C)C[C@H](O)[C@@H]1O [digitoxin] | 98%
28 | CN(C)CCOc1ccc(/C(=C(/CCCl)c2ccccc2)c2ccccc2)cc1 [toremifene] | 100%
29 | CCCCc1oc2ccc(NS(C)(=O)=O)cc2c1C(=O)c1ccc(OCCCN(CCCC)CCCC)cc1 [dronedarone] | 15%
30 | COC(=O)N[C@H](C(=O)N[C@@H](Cc1ccccc1)[C@@H](O)CN(Cc1ccc(-c2ccccn2)cc1)NC(=O)[C@@H](NC(=O)OC)C(C)(C)C)C(C)(C)C [atazanavir] | 60%
31 | Cc1c(C(=O)Nc2ccc(N3C[C@@H](C)O[C@@H](C)C3)nc2)cccc1-c1ccc(OC(F)(F)F)cc1 [sonidegib] | 69%
32 | CO[C@H]1C[C@@H]2CC[C@@H](C)[C@@](O)(O2)C(=O)C(=O)N2CCCC[C@H]2C(=O)O[C@H]([C@H](C)C[C@@H]2CC[C@@H](OCCO)[C@H](OC)C2)CC(=O)[C@H](C)/C=C(\C)[C@@H](O)[C@@H](OC)C(=O)[C@H](C)C[C@H](C)/C=C/C=C/C=C/1C [everolimus] | 5%
33 | O=C(Nc1ccc([N+](=O)[O-])cc1Cl)c1cc(Cl)ccc1O [niclosamide] | 10%
34 | CC(C)(C)c1nc(-c2cccc(NS(=O)(=O)c3c(F)cccc3F)c2F)c(-c2ccnc(N)n2)s1 [dabrafenib] | 95%
35 | C1CCC(C(CC2CCCCN2)C2CCCCC2)CC1 (stereo not shown) [perhexiline maleate] | 80%
36 | CC[C@@]1(O)C(=O)OCc2c1cc1n(c2=O)Cc2cc3c(CN(C)C)c(O)ccc3nc2-1 [Topotecan] | 30-44%
37 | CCN(CC)CCOc1ccc(C(=C(Cl)c2ccccc2)c2ccccc2)cc1 [clomiphene] | 90%
38 | CCN(CCO)CCCC(C)Nc1ccnc2cc(Cl)ccc12 (stereo not shown) [hydroxychloroquine] | 70%
39 | COc1cc2c3cc1Oc1c(OC)c(OC)cc4c1[C@@H](Cc1ccc(O)c(c1)Oc1ccc(cc1)C[C@@H]3N(C)CC2)N(C)CC4 [berbamine] | 30%
40 | CCc1nc(C(N)=O)c(Nc2ccc(N3CCC(N4CCN(C)CC4)CC3)c(OC)c2)nc1NC1CCOCC1 [gilteritinib] | 60%

Row | SMILES | bioavailability (%)
41 | CC(C)C(=O)OCC(=O)[C@@]12O[C@H](C3CCCCC3)O[C@@H]1C[C@H]1[C@@H]3CCC4=CC(=O)C=C[C@]4(C)[C@H]3[C@@H](O)C[C@@]12C [ciclesonide] | <1%
42 | NC(=O)c1nc(F)c[nH]c1=O [favipiravir] | 98%
43 | CC(=O)[C@@]1(O)CC[C@H]2[C@@H]3CCC4=CC(=O)CC[C@]4(C)[C@H]3CC[C@@]21C [hydroxyprogesterone] | 3%
44 | C=CC(=O)Nc1cc(Nc2nccc(-c3cn(C)c4ccccc34)n2)c(OC)cc1N(C)CCN(C)C [osimertinib(AZD-9291), osimertinib] | 70%
45 | COc1cc2nccc(Oc3ccc(NC(=O)C4(C(=O)Nc5ccc(F)cc5)CC4)cc3)c2cc1OC [Cabozantinib] | 74-93%
46 | CCN(CC)CCOc1ccc2c(c1)C(=O)c1cc(OCCN(CC)CC)ccc1-2 [Tilorone] | 60%
47 | O=c1[nH]cc(F)c(=O)[nH]1 [Fluorouracil] | 28%
48 | N.N.O=C([O-])C1(C(=O)[O-])CCC1.[Pt+2] [carboplatin] | 1.16%
49 | Cc1ccc(Nc2nccc(N(C)c3ccc4c(C)n(C)nc4c3)n2)cc1S(N)(=O)=O [pazopanib] | 14-39%
50 | CC(=O)Nc1cccc(-n2c(=O)n(C3CC3)c(=O)c3c(Nc4ccc(I)cc4F)n(C)c(=O)c(C)c32)c1 [trametinib] | 72%
51 | COc1ccc2cc1Oc1ccc(cc1)C[C@H]1c3c(cc4c(c3Oc3cc5c(cc3OC)CCN(C)[C@@H]5C2)OCO4)CCN1C [cepharanthine] | 5%
52 | CC(=O)CCCCn1c(=O)c2c(ncn2C)n(C)c1=O [pentoxifylline] | 20%
53 | COC1=C(OC)C(=O)C(CCCCCCCCCCO)=C(C)C1=O [idebenone] | <1%
54 | COc1ccc2[nH]cc(CCNC(C)=O)c2c1 [melatonin] | 15%
55 | CC1=NN(c2ccc(C)c(C)c2)C(=O)/C1=N\Nc1cccc(-c2cccc(C(=O)O)c2)c1O [eltrombopag] | 52%
56 | COc1cc(Nc2c(C#N)cnc3cc(OCCCN4CCN(C)CC4)c(OC)cc23)c(Cl)cc1Cl [Bosutinib] | 34%
57 | N#Cc1cc(NC(=O)C(=O)O)c(Cl)c(NC(=O)C(=O)O)c1 [lodoxamide] | 71%
58 | CCCN[C@H]1CCc2nc(N)sc2C1 [pramipexole] | 90%
